# From US11319298B2 (Merck Sharp & Dohme Corp., priority 2016, dated 2022)
# Molecular target: T1, human M4 muscarinic acetylcholine receptor (Homo sapiens, UniProt P08173)
# T1 construct: expressed in transfected cells; host or cells: CHO-K1
# T1 sequence (P08173 1-479): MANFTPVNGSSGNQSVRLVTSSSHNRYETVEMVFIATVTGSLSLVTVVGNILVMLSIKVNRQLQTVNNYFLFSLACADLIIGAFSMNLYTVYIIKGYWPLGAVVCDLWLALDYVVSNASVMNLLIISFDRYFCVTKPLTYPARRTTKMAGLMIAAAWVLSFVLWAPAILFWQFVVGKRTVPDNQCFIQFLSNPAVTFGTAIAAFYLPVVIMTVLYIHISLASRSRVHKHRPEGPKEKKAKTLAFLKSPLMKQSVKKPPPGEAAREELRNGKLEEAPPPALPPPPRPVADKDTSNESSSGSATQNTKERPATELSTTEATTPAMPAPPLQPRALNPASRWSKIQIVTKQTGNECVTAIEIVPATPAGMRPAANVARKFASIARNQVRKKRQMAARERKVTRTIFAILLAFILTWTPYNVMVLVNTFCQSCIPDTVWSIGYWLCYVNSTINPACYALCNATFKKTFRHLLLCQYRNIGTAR
# Experiment: human FLIPR-based M4 PAM assay, CHO-K1 cells stably transfected with human M4 receptor and chimeric G-protein Gαqi5
# Format: cell-based
# Settings: inflection point (IP) of dose response curve; acetylcholine added at 20% of maximum response; CHO-K1 human M4/Gαqi5, FLIPR Tetra
# Procedure, shortened: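 CHO-K1 cells were loaded with calcium dye at 37 °C for ~1 h. Fluorescence (ex 470–495/em 515–575 nm) was read for 4 min after test compound at increasing concentrations, then 3.5 min after acetylcholine at an EC20; sometimes a third addition at EC70 followed. The value is the inflection point of a 4-parameter logistic fit.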
row,EC50 [nM],SMILES
1,295,"Cc1cc(C(=O)NC2CCc3cccnc3C2)nnc1N1CCC(Oc2cccc(C#N)c2)CC1 (stereo not shown) [Example 160, 6-[4-(3-cyanophenoxy)piperidin-1-yl]-5-methyl-N-(5,6,7,8-tetrahydroquinolin-7-yl)pyridazine-3-carboxamide]"
2,425,"CCc1ncnc(N2CCC(Oc3cccc(C#N)c3)CC2)c1C [Example 261, 3-((1-(6-Ethyl-5-methylpyrimidin-4-yl)piperidin-4-yl)oxy)benzonitrile]"
3,290,"COC(=O)c1cc(C)c(N2CC[C@H](Oc3ccc(OC)nc3)[C@H](F)C2)nn1 [Example 40, methyl 6-((3R,4S)-3-fluoro-4-((6-methoxypyridin-3-yl)oxy)piperidin-1-yl)-5-methylpyridazine-3-carboxylate]"
4,241,"Cc1cc(C(=O)NCc2ccncc2Cl)nnc1N1CCC(Oc2cccc(C#N)c2)CC1 [Example 151, N-[(3-chloropyridin-4-yl)methyl]-6-[4-(3-cyanophenoxy)piperidin-1-yl]-5-methylpyridazine-3-carboxamide]"
5,1500,"COc1ccc(OC2CCN(c3nc(C)nc(N)c3C)CC2)cn1 [Example 87, 6-(4-((6-methoxypyridin-3-yl)oxy)piperidin-1-yl)-2,5-dimethylpyrimidin-4-amine]"
6,155,"COc1ncc(OC2CCN(c3nc(C)ncc3C)CC2)cc1F [Example 74, 4-(4-((5-fluoro-6-methoxypyridin-3-yl)oxy)piperidin-1-yl)-2,5-dimethylpyrimidine]"
7,3200,"COc1ccc(OC2CCN(c3ncnc(NCCC(F)(F)F)c3C)CC2)cn1 [Example 239, 6-(4-((6-methoxypyridin-3-yl)oxy)piperidin-1-yl)-5-methyl-N-(3,3,3-trifluoropropyl)pyrimidin-4-amine]"
8,4290,"Cc1cc(C(=O)NCc2ccncc2)c(N)nc1N1CCC(Oc2cccc(C#N)c2)CC1 [Example 266, 2-Amino-6-(4-(3-cyanophenoxy)piperidin-1-yl)-5-methyl-N-(pyridin-4-ylmethyl)nicotinamide]"
9,1250,"COc1ccc(OC2CCN(c3nnc(C(=O)NCc4ccc(OC)c(C(F)(F)F)c4)cc3C)CC2)cn1 [Example 186, 6-{4-[(6-methoxypyridin-3-yl)oxy]piperidin-1-yl}-N-[4-methoxy-3-(trifluoromethyl)benzyl]-5-methylpyridazine-3-carboxamide]"
10,893,"COc1ccc([C@H](C)NC(=O)c2cc(C)c(N3CCC(Oc4ccc(OC)nc4)CC3)nn2)cc1 [Example 182, N-[(1S)-1-(4-methoxyphenyl)ethyl]-6-{4-[(6-methoxypyridin-3-yl)oxy]piperidin-1-yl}-5-methylpyridazine-3-carboxamide]"
11,705,COc1ccc(OC2CCN(c3nc(C(=O)NC(C)(C)C)nc(Cl)c3C)CC2)cn1 [Example 212]
12,34,"Cc1c(Cl)nc(CO)nc1N1CCC(Oc2ccc3c(c2)COC3)CC1 [Example 94, (4-chloro-6-(4-((1,3-dihydroisobenzofuran-5-yl)oxy)piperidin-1-yl)-5-methylpyrimidin-2-yl)methanol]"
13,325,"COc1ccc(OC2CCN(c3nnc(C(=O)NC4CCc5ncccc5C4)cc3C)CC2)cn1 (stereo not shown) [Example 163, 6-{4-[(6-methoxypyridin-3-yl)oxy]piperidin-1-yl}-5-methyl-N-(5,6,7,8-tetrahydroquinolin-6-yl)pyridazine-3-carboxamide]"
14,177,"COc1ccc(O[C@@H]2CCN(c3nnc(C(=O)N[C@H]4CCc5ncccc5C4)cc3C)C[C@@H]2F)cn1 [Example 138A, 6-((3S,4R)-3-fluoro-4-((6-methoxypyridin-3-yl)oxy)piperidin-1-yl)-5-methyl-N-((S)-5,6,7,8-tetrahydroquinolin-6-yl)pyridazine-3-carboxamide]"
15,44,"COc1ccc(OC2CCN(c3nc(CO)nc(Cl)c3C)CC2)cc1C#N [Example 48, 5-((1-(6-chloro-2-(hydroxymethyl)-5-methylpyrimidin-4-yl)piperidin-4-yl)oxy)-2-methoxybenzonitrile]"
16,193,"Cc1nc2ccc(OC3CCN(c4nnc(C(=O)NCc5ccncc5)cc4C)CC3)cc2o1 [Example 143, 5-methyl-6-{4-[(2-methyl-1,3-benzoxazol-6-yl)oxy]piperidin-1-yl}-N-(pyridin-4-ylmethyl)pyridazine-3-carboxamide]"
17,2960,"COc1ccc(OC2CCN(c3nc(C)c(C(N)=O)cc3C)CC2)cn1 [Example 191, 6-{4-[(6-methoxypyridin-3-yl)oxy]piperidin-1-yl}-2,5-dimethypyridine-3-carboxamide]"

row,EC50 [nM],SMILES
1,1510,"COc1ccc([C@@H](C)NC(=O)c2cc(C)c(N3CCC(Oc4ccc(OC)nc4)CC3)nn2)cc1 [Example 188, N-[(1R)-1-(4-methoxyphenyl)ethyl]-6-{4-[(6-methoxypyridin-3-yl)oxy]piperidin-1-yl}-5-methylpyridazine-3-carboxamide]"
2,110,"COc1ccc(OC2CCN(c3nnc(C(=O)N[C@@H]4CCc5cccnc5C4)cc3C)CC2)cn1 [Example 126A, (R)-6-{4-[(6-methoxypyridin-3-yl)oxy]piperidin-1-yl}-5-methyl-N-(5,6,7,8-tetrahydroquinolin-7-yl)pyridazine-3-carboxamide]"
3,224,"COc1ccc(OC2CCN(c3nc(C(=O)NCc4ccncc4)nc(Cl)c3C)CC2)cn1 [Example 207, 4-chloro-6-(4-((6-methoxypyridin-3-yl)oxy)piperidin-1-yl)-5-methyl-N-(pyridin-4-ylmethyl)pyrimidine-2-carboxamide]"
4,157,"Cc1c(Cl)nc(CO)nc1N1CCC(Oc2ccc3c(cnn3C)c2)CC1 [Example 31, (4-chloro-5-methyl-6-(4-((1-methyl-1H-indazol-5-yl)oxy)piperidin-1-yl)pyrimidin-2-yl)methanol]"
5,846,"COc1ccc(OC2CCN(c3nc(C4CC4)nc(Cl)c3C)CC2)cc1 [Example 95C, 4-chloro-2-cyclopropyl-6-(4-(4-methoxyphenoxy)piperidin-1-yl)-5-methylpyrimidine]"
6,766,"Cc1c(Cl)nc(CO)nc1N1CCC(Oc2ccc3nonc3c2)CC1 [Example 5, (4-(4-(benzo[c][1,2,5]oxadiazol-5-yloxy)piperidin-1-yl)-6-chloro-5-methylpyrimidin-2-yl)methanol]"
7,1710,"COc1ccc(OC2CCN(c3ncnc(-c4ccoc4)c3C)CC2)cn1 [Example 252, 4-(furan-3-yl)-6-(4-((6-methoxypyridin-3-yl)oxy)piperidin-1-yl)-5-methylpyrimidine]"
8,67,"Cc1c(Cl)ncnc1N1CCC(Oc2ccc3c(cnn3C)c2)CC1 [Example 60, 5-((1-(6-chloro-5-methylpyrimidin-4-yl)piperidin-4-yl)oxy)-1-methyl-1H-indazole]"
9,2490,"Cc1c(Cl)nc(CO)nc1N1CCC(Oc2ccc3ccn(C)c(=O)c3c2)CC1 [Example 9, 7-((1-(6-chloro-2-(hydroxymethyl)-5-methylpyrimidin-4-yl)piperidin-4-yl)oxy)-2-methylisoquinolin-1(2H)-one]"
10,143,"COc1ccc(OC2CCN(c3ncnc(C)c3C)CC2)cn1 [Example 242, 4-(4-((6-methoxypyridin-3-yl)oxy)piperidin-1-yl)-5,6-dimethylpyrimidine]"
11,915,"COc1ccc(OC2CCN(c3nnc(C(=O)NCc4ccc(F)cc4Cl)cc3C)CC2)cn1 [Example 183, N-(2-chloro-4-fluorobenzyl)-6-{4-[(6-methoxypyridin-3-yl)oxy]piperidin-1-yl}-5-methylpyridazine-3-carboxamide]"
12,254,"Cc1cc(C(=O)N[C@@H]2CCc3ncccc3C2)nnc1N1CCC(Oc2cccc(C#N)c2)CC1 [Example 130B, (R)-6-[4-(3-cyanophenoxy)piperidin-1-yl]-5-methyl-N-(5,6,7,8-tetrahydroquinolin-6-yl)pyridazine-3-carboxamide]"
13,319,"Cc1ncc(C)c(N2CCC(Oc3ccc4c(c3)C(=O)OC4)CC2)n1 [Example 99, 6-((1-(2,5-Dimethylpyrimidin-4-yl)piperidin-4-yl)oxy)isobenzofuran-1(31-1)-one]"
14,3410,"COc1ccc(OC2CCN(c3nc(C(=O)N[C@@H]4CCCc5ccccc54)nc(Cl)c3C)CC2)cn1 [Example 223, (R)-4-chloro-6-(4-((6-methoxypyridin-3-yl)oxy)piperidin-1-yl)-5-methyl-N-(1,2,3,4-tetrahydronaphthalen-1-yl)pyrimidine-2-carboxamide]"
15,693,"COc1ccc(OC2CCN(c3nnc(C(=O)NC4Cc5ccccc5C4)cc3C)CC2)cn1 [Example 177, N-(2,3-dihydro-1H-inden-2-yl)-6-{4-[(6-methoxypyridin-3-yl)oxy]piperidin-1-yl}-5-methylpyridazine-3-carboxamide]"
16,251,"COc1ccc(OC2CCN(c3nnc(-c4nnc(C)o4)cc3C)CC2)cn1 [Example 263, 2-(6-(4-((6-Methoxypyridin-3-yl)oxy)piperidin-1-yl)-5-methylpyridazin-3-yl)-5-methyl-1,3,4-oxadiazole]"
17,172,"Cc1ncc(C)c(N2CCC(Oc3cccc(C#N)c3)CC2)n1 [Example 76, 3-((1-(2,5-dimethylpyrimidin-4-yl)piperidin-4-yl)oxy)benzonitrile]"
